{"source": "PubChem BioAssay AID212", "about": "(DTP/NCI, 2004)", "tested_on": "BDF1 mice, colon carcinoma 38 sc, T/C %", "assay": "NCI In Vivo Anticancer Drug Screen. Data for tumor model Colon Carcinoma 38 (subcutaneous) in B6D2F1 (BDF1) mice", "conditions": "endpoint: median tumor weight (est.), higher = larger tumour", "in_short": "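Mice with transplanted tumors are treated with compound or vehicle. Survival or tumor size is then measured in both groups. The ratio of treated to control gives the reported figure.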", "key": {"[1]": {"conditions": "dose: 25.0 mg/kg/injection, schedule: Q07DX002 (ip), vehicle: Klucel (hydroxypropylcellulose) (HPC)"}, "[2]": {"conditions": "dose: 100.0 mg/kg/injection, schedule: Q07DX002 (ip), vehicle: Klucel (hydroxypropylcellulose) (HPC)"}, "[3]": {"conditions": "dose: 25.0 mg/kg/injection, schedule: Q07DX002 (ip), vehicle: saline with Tween-80"}, "[4]": {"conditions": "dose: 50.0 mg/kg/injection, schedule: Q07DX002 (ip), vehicle: saline with Tween-80"}, "[5]": {"conditions": "dose: 100.0 mg/kg/injection, schedule: Q07DX002 (ip), vehicle: saline with Tween-80"}, "[6]": {"conditions": "dose: 25.0 mg/kg/injection, schedule: Q07DX002 (ip), vehicle: water"}, "[7]": {"conditions": "dose: 100.0 mg/kg/injection, schedule: Q07DX002 (ip), vehicle: water"}, "[8]": {"conditions": "dose: 200.0 mg/kg/injection, schedule: Q07DX002 (ip), vehicle: water"}, "[9]": {"conditions": "dose: 50.0 mg/kg/injection, schedule: Q07DX002 (ip), vehicle: Klucel (hydroxypropylcellulose) (HPC)"}}, "note": "Values joined by “and” are separate entries in the source; they are usually repeats but may differ in a detail not shown here. Identical values can stand only once. Results filed as inconclusive are left out.", "data": [{"smiles": "C=C[Si]12OCCN(CCO1)CCO2", "values": [{"measurement": "T/C", "setting": "[1]", "result": "73 % of control and 90 % of control"}, {"measurement": "T/C", "setting": "[2]", "result": "29 % of control"}, {"measurement": "T/C", "setting": "dose: 200.0 mg/kg/injection, schedule: Q07DX002 (ip), vehicle: Klucel (hydroxypropylcellulose) (HPC)", "result": "93 % of control and 97 % of control"}]}, {"smiles": "N=[N+]=CC(=O)CCC(NC(=O)C(CCC(=O)C=[N+]=N)NC(=O)CCC(N)C(=O)O)C(=O)O", "note": "(stereo not drawn)", "values": [{"measurement": "T/C", "setting": "dose: 3.12 mg/kg/injection, schedule: Q07DX003 (ip), vehicle: clinical formulation", "result": "54 % of control"}, {"measurement": "T/C", "setting": "dose: 3.12 mg/kg/injection, schedule: Q07DX003 (ip), vehicle: water", "result": "52 % of control"}, {"measurement": "T/C", "setting": "dose: 6.25 mg/kg/injection, schedule: Q07DX003 (ip), vehicle: clinical formulation", "result": "62 % of control"}, {"measurement": "T/C", "setting": "dose: 6.25 mg/kg/injection, schedule: Q07DX003 (ip), vehicle: water", "result": "48 % of control"}, {"measurement": "T/C", "setting": "dose: 12.5 mg/kg/injection, schedule: Q07DX003 (ip), vehicle: clinical formulation", "result": "46 % of control"}, {"measurement": "T/C", "setting": "dose: 12.5 mg/kg/injection, schedule: Q07DX003 (ip), vehicle: water", "result": "32 % of control"}, {"measurement": "T/C", "setting": "dose: 25.0 mg/kg/injection, schedule: Q07DX003 (ip), vehicle: clinical formulation", "result": "40 % of control"}, {"measurement": "T/C", "setting": "dose: 25.0 mg/kg/injection, schedule: Q07DX003 (ip), vehicle: water", "result": "44 % of control"}, {"measurement": "T/C", "setting": "dose: 50.0 mg/kg/injection, schedule: Q07DX003 (ip), vehicle: clinical formulation", "result": "18 % of control"}, {"measurement": "T/C", "setting": "dose: 50.0 mg/kg/injection, schedule: Q07DX003 (ip), vehicle: water", "result": "12 % of control"}]}, {"smiles": "C1OCN2CSCC12", "note": "(stereo not drawn)", "values": [{"measurement": "T/C", "setting": "[3]", "result": "97 % of control"}, {"measurement": "T/C", "setting": "[4]", "result": "67 % of control"}, {"measurement": "T/C", "setting": "[5]", "result": "85 % of control"}, {"measurement": "T/C", "setting": "dose: 200.0 mg/kg/injection, schedule: Q07DX002 (ip), vehicle: saline with Tween-80", "result": "79 % of control"}, {"measurement": "T/C", "setting": "dose: 400.0 mg/kg/injection, schedule: Q07DX002 (ip), vehicle: saline with Tween-80", "result": "80 % of control"}]}, {"smiles": "Nc1nc2c(ncn2C2OC(CO)C(O)C2O)c(=O)[nH]1.Nc1nc2c(ncn2C2OC(CO)C(O)C2O)c(=O)[nH]1.[NH2-].[NH2-].[Pt+2]", "note": "(stereo not drawn)", "values": [{"measurement": "T/C", "setting": "dose: 12.5 mg/kg/injection, schedule: Q07DX002 (ip), vehicle: water", "result": "30 % of control"}, {"measurement": "T/C", "setting": "[6]", "result": "108 % of control"}, {"measurement": "T/C", "setting": "dose: 50.0 mg/kg/injection, schedule: Q07DX002 (ip), vehicle: water", "result": "96 % of control"}, {"measurement": "T/C", "setting": "[7]", "result": "248 % of control"}, {"measurement": "T/C", "setting": "[8]", "result": "117 % of control"}]}, {"smiles": "C/C(=N/NC(N)=S)c1ccc2ccccc2c1", "values": [{"measurement": "T/C", "setting": "dose: 6.25 mg/kg/injection, schedule: Q07DX002 (ip), vehicle: saline with Tween-80", "result": "111 % of control"}, {"measurement": "T/C", "setting": "dose: 12.5 mg/kg/injection, schedule: Q07DX002 (ip), vehicle: saline with Tween-80", "result": "63 % of control"}, {"measurement": "T/C", "setting": "[3]", "result": "70 % of control and 80 % of control"}, {"measurement": "T/C", "setting": "[5]", "result": "31 % of control and 48 % of control"}]}, {"smiles": "O=NN(CCCl)C(=O)Oc1cc(Cl)c(Cl)cc1Cl", "values": [{"measurement": "T/C", "setting": "[1]", "result": "117 % of control"}, {"measurement": "T/C", "setting": "[9]", "result": "63 % of control"}]}, {"smiles": "O=S(=O)(c1ccccc1)N1CN2CCN(C2)C1", "values": [{"measurement": "T/C", "setting": "[3]", "result": "94 % of control"}, {"measurement": "T/C", "setting": "[4]", "result": "62 % of control"}]}, {"smiles": "Nc1nc2n[nH]nc2c(=O)[nH]1", "values": [{"measurement": "T/C", "setting": "dose: 50.0 mg/kg/injection, schedule: Q07DX002 (ip), vehicle: suspension in saline", "result": "64 % of control"}, {"measurement": "T/C", "setting": "dose: 100.0 mg/kg/injection, schedule: Q07DX002 (ip), vehicle: suspension in saline", "result": "80 % of control"}, {"measurement": "T/C", "setting": "dose: 200.0 mg/kg/injection, schedule: Q07DX002 (ip), vehicle: suspension in saline", "result": "57 % of control"}, {"measurement": "T/C", "setting": "dose: 400.0 mg/kg/injection, schedule: Q07DX002 (ip), vehicle: suspension in saline", "result": "51 % of control"}]}, {"smiles": "O=C1N[C@@H]([C@H]2CC[C@H](Cl)CN2)C(=O)N[C@H]1[C@H]1CC[C@H](Cl)CN1", "values": [{"measurement": "T/C", "setting": "dose: 0.31 mg/kg/injection, schedule: Q07DX003 (ip), vehicle: water", "result": "85 % of control"}, {"measurement": "T/C", "setting": "dose: 0.63 mg/kg/injection, schedule: Q07DX003 (ip), vehicle: water", "result": "110 % of control"}, {"measurement": "T/C", "setting": "dose: 1.25 mg/kg/injection, schedule: Q07DX003 (ip), vehicle: water", "result": "79 % of control"}, {"measurement": "T/C", "setting": "dose: 2.5 mg/kg/injection, schedule: Q07DX003 (ip), vehicle: water", "result": "70 % of control"}, {"measurement": "T/C", "setting": "dose: 5.0 mg/kg/injection, schedule: Q07DX003 (ip), vehicle: water", "result": "6 % of control"}]}, {"smiles": "CCCCCn1c(C)cc(/C=C\\c2ccc3cc(C)ccc3[n+]2C)c1C", "values": [{"measurement": "T/C", "setting": "dose: 0.62 mg/kg/injection, schedule: Q07DX002 (ip), vehicle: Klucel (hydroxypropylcellulose) (HPC)", "result": "85 % of control and 86 % of control"}, {"measurement": "T/C", "setting": "dose: 1.25 mg/kg/injection, schedule: Q07DX002 (ip), vehicle: Klucel (hydroxypropylcellulose) (HPC)", "result": "104 % of control"}, {"measurement": "T/C", "setting": "dose: 37.5 micrograms/kg/injection, schedule: Q07DX002 (ip), vehicle: Klucel (hydroxypropylcellulose) (HPC)", "result": "84 % of control"}, {"measurement": "T/C", "setting": "dose: 75.0 micrograms/kg/injection, schedule: Q07DX002 (ip), vehicle: Klucel (hydroxypropylcellulose) (HPC)", "result": "186 % of control"}, {"measurement": "T/C", "setting": "dose: 150.0 micrograms/kg/injection, schedule: Q07DX002 (ip), vehicle: Klucel (hydroxypropylcellulose) (HPC)", "result": "162 % of control"}, {"measurement": "T/C", "setting": "dose: 600.0 micrograms/kg/injection, schedule: Q07DX002 (ip), vehicle: Klucel (hydroxypropylcellulose) (HPC)", "result": "188 % of control"}]}, {"smiles": "CCCCC(=O)OCC(=O)[C@]1(O)Cc2c(O)c3c(c(O)c2[C@@H](OC2CC(NC(=O)C(F)(F)F)C(O)C(C)O2)C1)C(=O)c1c(OC)cccc1C3=O", "note": "(stereo partly drawn)", "values": [{"measurement": "T/C", "setting": "[6]", "result": "168 % of control"}, {"measurement": "T/C", "setting": "[7]", "result": "89 % of control"}, {"measurement": "T/C", "setting": "[8]", "result": "106 % of control"}, {"measurement": "T/C", "setting": "dose: 400.0 mg/kg/injection, schedule: Q07DX002 (ip), vehicle: water", "result": "71 % of control"}, {"measurement": "T/C", "setting": "dose: 800.0 mg/kg/injection, schedule: Q07DX002 (ip), vehicle: water", "result": "45 % of control"}]}, {"smiles": "O=C(Nc1ccc(N=C=S)cc1Cl)c1cc(Cl)cc(Cl)c1O", "values": [{"measurement": "T/C", "setting": "dose: 12.5 mg/kg/injection, schedule: Q07DX002 (ip), vehicle: Klucel (hydroxypropylcellulose) (HPC)", "result": "64 % of control and 65 % of control"}, {"measurement": "T/C", "setting": "[9]", "result": "80 % of control and 87 % of control"}, {"measurement": "T/C", "setting": "[2]", "result": "79 % of control"}]}, {"smiles": "ClC1=C(Cl)C2(Cl)C3C(Cl)C(Cl)CC3C1(Cl)C2(Cl)Cl", "note": "(stereo not drawn)", "values": [{"measurement": "T/C", "setting": "dose: 9.5 mg/kg/injection, schedule: Q07DX002 (ip), vehicle: saline with Tween-80", "result": "103 % of control"}, {"measurement": "T/C", "setting": "dose: 19.0 mg/kg/injection, schedule: Q07DX002 (ip), vehicle: saline with Tween-80", "result": "114 % of control"}, {"measurement": "T/C", "setting": "dose: 28.0 mg/kg/injection, schedule: Q07DX002 (ip), vehicle: saline + Tween-80 + alcohol", "result": "102 % of control"}, {"measurement": "T/C", "setting": "dose: 28.0 mg/kg/injection, schedule: Q07DX002 (ip), vehicle: saline with Tween-80", "result": "100 % of control"}, {"measurement": "T/C", "setting": "dose: 50.0 mg/kg/injection, schedule: Q07DX002 (ip), vehicle: other", "result": "63 % of control and 86 % of control"}, {"measurement": "T/C", "setting": "dose: 56.0 mg/kg/injection, schedule: Q07DX002 (ip), vehicle: saline + Tween-80 + alcohol", "result": "86 % of control"}, {"measurement": "T/C", "setting": "dose: 56.0 mg/kg/injection, schedule: Q07DX002 (ip), vehicle: saline with Tween-80", "result": "92 % of control and 93 % of control"}, {"measurement": "T/C", "setting": "dose: 100.0 mg/kg/injection, schedule: Q07DX002 (ip), vehicle: other", "result": "84 % of control"}, {"measurement": "T/C", "setting": "dose: 112.0 mg/kg/injection, schedule: Q07DX002 (ip), vehicle: saline with Tween-80", "result": "100 % of control"}]}]}
